Measurements taken from patent US20180200233A1, “COMPOSITIONS FOR PREVENTING CANCERS ASSOCIATED WITH HUMAN PAPILLOMA VIRUSES” (Loma Linda University, priority 2015, published 2018).

Key:
[1] = tested on: SiHa cells; assay: MTT cell viability, SiHa cells with doxorubicin or cisplatin; assay type: cell-based, human; conditions: 100 μM myricetin, 50 μM spinacine added 4 h prior; compared to negative control
Protocol: FIGS. 3A-E are graphs providing data regarding resistance of HPV^+ SiHa cells to TRAIL-, cisplatin- and […] apoptosis, in the presence and absence of small molecules as disclosed herein. (FIG. 3A) HPV^+ SiHa cells are resistant to TRAIL-induced apoptosis as compared to the human osteosarcoma cell line U2OS. Cells (2×10^4 cells per well) were seeded into a 96-well plate, allowed to incubate overnight, and then treated with indicated concentration of TRAIL in the presence of cycloheximide (5 μg/ml). The viability of cells was measured after overnight incubation using the MTT assay; the viability of cells untreated with TRAIL was set at 100% for each group. (FIG. 3B) The indicated concentrations of three small molecules were added to SiHa cells, and an MTT assay was preformed after overnight incubation. The viability of cells untreated with small molecules was set as 100%. […] Cell viability was measured after overnight incubation using the MTT assay, and the viability of cells untreated with either myricetin or spinacine was set at 100%. […]
(§1) The extracellular domain of human TRAIL was cloned into a pTriEx expression plasmid containing N-terminal Hisx6 tag. […] All experiments were repeated at least three times (three biological replicates, carried out on different days), with each experimental group measured in triplicate within each of these individual experiments. […]

[2] = tested on: SCC 84 (#84) cells; assay: MTT cell viability, HPV- HNSCC cell line #84 with doxorubicin; assay type: cell-based; conditions: 2 μM doxorubicin; small molecules 0-12.5 μM
Protocol: FIGS. 8A-B includes graphs showing myricetin and spinacine (5) re-sensitized HPV^+, but not HPV^−, HNSCC cell lines to treatment with doxorubicin. One HPV^− (FIG. 8A; #84) and one HPV^+ (FIG. 8B; #90) head and neck cancer cell line (2×10^4 cells per well) were seeded into 96-well plates and allowed to incubate overnight, then cells were pre-treated with myricetin or spinacine (0-12.5 μM) for 4 h. 2 μM of doxorubicin was added and cells were allowed to incubate overnight. Cell viability was measured by MTT assay, and the viability of cells untreated with small molecules was set at 100%. Experiments were performed in triplicate, and error bars indicate the standard deviation.
The results described above indicate that myricetin and spinacine sensitize HPV^+ HNSCC cells to TRAIL-induced apoptosis. To determine whether this sensitization also occurs in the context of chemotherapeutic agents, several HNSCC cell lines were tested for their responses to combination treatments.
as §1, with “tag. His-TRAIL was expressed in the E. coli BL-21 pLys strain and purified as previously described.” for “tag.”

[3] = tested on: UPCI-SCC90-UP-Clone 35 (#90) cells; assay: MTT cell viability, HPV+ HNSCC cell line #90 with TRAIL; assay type: cell-based; conditions: HPV+ #90 cells, 50 ng/ml TRAIL
Protocol: FIGS. 7A-E are graphs showing myricetin and spinacine (5) re-sensitized HPV^+, but not HPV^−, head and neck cancer cell lines to treatment with TRAIL. (FIG. 7A) Both HPV^− and HPV^+ HN cancer cell lines display resistance to TRAIL treatment. HPV^− (#84) (Myricetin—FIG. 7B; Spinacine—FIG. 7C) and HPV^+ (#90) (FIG. 7D; Spinacine—FIG. 7E) head and neck cancer cell lines (2×10^4 cells per well) were seeded into 96-well plates and allowed to incubate overnight, then cells were pre-treated with myricetin (0-200 μM) or spinacine (0-100 μM) for 4 h. […] of TRAIL, along with cycloheximide (5 μg/ml) was added and cells were allowed to incubate overnight. Cell viability was measured by the MTT assay, and the viability of cells untreated with small molecules was set at 100%. Experiments were performed in triplicate, and error bars indicate the standard deviation.
As shown above, myricetin and spinacine sensitize SiHa cells to TRAIL and chemotherapy drugs. […] Other types of HPV^+ cancer cells were examined, and in particular, head and neck squamous cell carcinoma (HNSCC) cells can also be sensitized in this manner. […] For the combination experiments, 50 ng/ml TRAIL was applied in combination with either myricetin (0-200 μM) or spinacine (0-100 μM). […] In contrast […], TRAIL-induced cell death was enhanced 30% in UPCI-SCC90-UP-Clone 35, #90. Furthermore, 40 μM spinacine was able to enhance TRAIL-induced cell death in the HPV^+ #90 cell lines up to 50%.
as §1, with “tag. His-TRAIL was expressed in the E. coli BL-21 pLys strain and purified as previously described. Doxorubicin and cisplatin were purchased from Sigma. His-TRAIL, doxorubicin, and cisplatin were diluted in PBS to the desired concentration before using.” for “tag.”

Compound | sensitivity of SiHa cells to doxorubicin and cisplatin (in words) [1] | response of HPV- HNSCC cell line #84 to doxorubicin (in words) [2] | enhancement of TRAIL-induced cell death ([3]; 40 μM spinacine) | enhancement of TRAIL-induced cell death ([3]; myricetin 0-200 μM) [%]
O=C(O)C1Cc2[nH]cnc2CN1 (stereo not drawn) [Compound 5, 4,5,6,7-Tetrahydro-1H-imidazo(4,5-c)pyridine-6-carboxylic acid] | increased the sensitivity | resistant | up to 50% | 
O=c1c(O)c(-c2cc(O)c(O)c(O)c2)oc2cc(O)cc(O)c12 [Myricetin, reference compound] | increased the sensitivity | resistant |  | 30
